# Measurements reported in patent US8604217B2, “Compound, a process for its preparation, a pharmaceutical composition, use of a compound, a method for modulating or regulating serine/threonine kinases and a serine/threonine kinases modulating agent” (Selvita S.A., priority 2009, dated 2013).
# Tests used:
# Experiment in all cases: KinaseProfiler kinase panel
# [1] = target: SAPK3(h) (Homo sapiens (Human), UniProt P53778); assay type: biochemical
# [2] = target: Abl (M351T)(h) (Homo sapiens (Human), UniProt P00519, M351T); assay type: biochemical
# [3] = target: Blk(m) (Mus musculus (Mouse), UniProt P16277); assay type: biochemical
# [4] = target: TAO1(h) (Homo sapiens (Human), UniProt Q7L7X3); assay type: biochemical
# [5] = tested on: CK1(y); assay type: biochemical, yeast; settings: 1 μM
# [6] = target: NEK11(h) (Homo sapiens (Human), UniProt Q8NG66); assay type: biochemical
# [7] = target: SIK(h) (Homo sapiens (Human), UniProt P57059); assay type: biochemical
# [8] = target: Abl(T315I)(h) (Homo sapiens (Human), UniProt P00519, T315I); assay type: biochemical
# [9] = target: Abl(m) (Mus musculus (Mouse), UniProt P00520); assay type: biochemical
# [10] = target: Fms(h) (Homo sapiens (Human), UniProt P07333); assay type: biochemical
# [11] = target: CLK3(h) (Homo sapiens (Human), UniProt P49761); assay type: biochemical
# [12] = target: PKCη(h) (Homo sapiens (Human), UniProt P24723); assay type: biochemical
# [13] = target: SAPK4(h) (Homo sapiens (Human), UniProt O15264); assay type: biochemical
# [14] = target: EGFR(L858R)(h) (Homo sapiens (Human), UniProt P00533, L858R); assay type: biochemical
# [15] = target: Ret (V804L)(h) (Homo sapiens (Human), UniProt P07949, V804L); assay type: biochemical
# [16] = target: Abl(Y253F)(h) (Homo sapiens (Human), UniProt P00519, Y253F); assay type: biochemical
# [17] = target: PKCγ(h) (Homo sapiens (Human), UniProt P05129); assay type: biochemical
# [18] = target: VRK2(h) (Homo sapiens (Human), UniProt Q86Y07); assay type: biochemical
# [19] = target: MAPK2(h) (Homo sapiens (Human), UniProt P28482); assay type: biochemical
# [20] = target: Lyn(h) (Homo sapiens (Human), UniProt P07948); assay type: biochemical
# [21] = target: MST2(h) (Homo sapiens (Human), UniProt Q13188); assay type: biochemical
# [22] = target: Bmx(h) (Homo sapiens (Human), UniProt P51813); assay type: biochemical
# [23] = target: TAO3(h) (Homo sapiens (Human), UniProt Q9H2K8); assay type: biochemical
# [24] = target: EphA7(h) (Homo sapiens (Human), UniProt Q15375); assay type: biochemical
# [25] = target: IRR(h) (Homo sapiens (Human), UniProt P14616); assay type: biochemical
# [26] = target: Fgr(h) (Homo sapiens (Human), UniProt P09769); assay type: biochemical
# [27] = target: RIPK2(h) (Homo sapiens (Human), UniProt O43353); assay type: biochemical
# [28] = target: NEK7(h) (Homo sapiens (Human), UniProt Q8TDX7); assay type: biochemical
# [29] = target: PDK1(h) (Homo sapiens (Human), UniProt O15530); assay type: biochemical
# [30] = target: FGFR2(h) (Homo sapiens (Human), UniProt P21802); assay type: biochemical
# [31] = target: CK1γ3(h) (Homo sapiens (Human), UniProt Q9Y6M4); assay type: biochemical
# [32] = target: SGK(h) (Homo sapiens (Human), UniProt O00141); assay type: biochemical
# [33] = target: Aurora-A(h) (Homo sapiens (Human), UniProt O14965); assay type: biochemical
# [34] = target: SGK2(h) (Homo sapiens (Human), UniProt Q9HBY8); assay type: biochemical
# [35] = target: TLK2(h) (Homo sapiens (Human), UniProt Q86UE8); assay type: biochemical
# [36] = target: CK2(h) (Homo sapiens (Human), UniProt P68400); assay type: biochemical
# [37] = target: WNK3(h) (Homo sapiens (Human), UniProt Q9BYP7); assay type: biochemical
# [38] = target: MAPK1(h) (Homo sapiens (Human), UniProt P27361); assay type: biochemical
# [39] = target: JNK3(h) (Homo sapiens (Human), UniProt P53779); assay type: biochemical
# [40] = target: PKBα(h) (Homo sapiens (Human), UniProt P31749); assay type: biochemical
# Sequence of Aurora-A(h) (O14965 whole entry): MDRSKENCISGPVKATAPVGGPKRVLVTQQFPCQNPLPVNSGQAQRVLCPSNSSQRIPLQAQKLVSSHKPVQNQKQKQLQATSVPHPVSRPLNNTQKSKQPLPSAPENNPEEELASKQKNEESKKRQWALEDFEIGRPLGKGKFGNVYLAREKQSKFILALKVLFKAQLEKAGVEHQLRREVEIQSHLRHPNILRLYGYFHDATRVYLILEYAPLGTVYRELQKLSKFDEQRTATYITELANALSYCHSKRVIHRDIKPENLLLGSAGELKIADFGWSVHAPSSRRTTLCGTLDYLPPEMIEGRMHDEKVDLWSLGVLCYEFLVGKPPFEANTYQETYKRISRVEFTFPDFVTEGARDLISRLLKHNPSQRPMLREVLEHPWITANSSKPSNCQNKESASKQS
# Sequence of WNK3(h) (Q9BYP7 whole entry): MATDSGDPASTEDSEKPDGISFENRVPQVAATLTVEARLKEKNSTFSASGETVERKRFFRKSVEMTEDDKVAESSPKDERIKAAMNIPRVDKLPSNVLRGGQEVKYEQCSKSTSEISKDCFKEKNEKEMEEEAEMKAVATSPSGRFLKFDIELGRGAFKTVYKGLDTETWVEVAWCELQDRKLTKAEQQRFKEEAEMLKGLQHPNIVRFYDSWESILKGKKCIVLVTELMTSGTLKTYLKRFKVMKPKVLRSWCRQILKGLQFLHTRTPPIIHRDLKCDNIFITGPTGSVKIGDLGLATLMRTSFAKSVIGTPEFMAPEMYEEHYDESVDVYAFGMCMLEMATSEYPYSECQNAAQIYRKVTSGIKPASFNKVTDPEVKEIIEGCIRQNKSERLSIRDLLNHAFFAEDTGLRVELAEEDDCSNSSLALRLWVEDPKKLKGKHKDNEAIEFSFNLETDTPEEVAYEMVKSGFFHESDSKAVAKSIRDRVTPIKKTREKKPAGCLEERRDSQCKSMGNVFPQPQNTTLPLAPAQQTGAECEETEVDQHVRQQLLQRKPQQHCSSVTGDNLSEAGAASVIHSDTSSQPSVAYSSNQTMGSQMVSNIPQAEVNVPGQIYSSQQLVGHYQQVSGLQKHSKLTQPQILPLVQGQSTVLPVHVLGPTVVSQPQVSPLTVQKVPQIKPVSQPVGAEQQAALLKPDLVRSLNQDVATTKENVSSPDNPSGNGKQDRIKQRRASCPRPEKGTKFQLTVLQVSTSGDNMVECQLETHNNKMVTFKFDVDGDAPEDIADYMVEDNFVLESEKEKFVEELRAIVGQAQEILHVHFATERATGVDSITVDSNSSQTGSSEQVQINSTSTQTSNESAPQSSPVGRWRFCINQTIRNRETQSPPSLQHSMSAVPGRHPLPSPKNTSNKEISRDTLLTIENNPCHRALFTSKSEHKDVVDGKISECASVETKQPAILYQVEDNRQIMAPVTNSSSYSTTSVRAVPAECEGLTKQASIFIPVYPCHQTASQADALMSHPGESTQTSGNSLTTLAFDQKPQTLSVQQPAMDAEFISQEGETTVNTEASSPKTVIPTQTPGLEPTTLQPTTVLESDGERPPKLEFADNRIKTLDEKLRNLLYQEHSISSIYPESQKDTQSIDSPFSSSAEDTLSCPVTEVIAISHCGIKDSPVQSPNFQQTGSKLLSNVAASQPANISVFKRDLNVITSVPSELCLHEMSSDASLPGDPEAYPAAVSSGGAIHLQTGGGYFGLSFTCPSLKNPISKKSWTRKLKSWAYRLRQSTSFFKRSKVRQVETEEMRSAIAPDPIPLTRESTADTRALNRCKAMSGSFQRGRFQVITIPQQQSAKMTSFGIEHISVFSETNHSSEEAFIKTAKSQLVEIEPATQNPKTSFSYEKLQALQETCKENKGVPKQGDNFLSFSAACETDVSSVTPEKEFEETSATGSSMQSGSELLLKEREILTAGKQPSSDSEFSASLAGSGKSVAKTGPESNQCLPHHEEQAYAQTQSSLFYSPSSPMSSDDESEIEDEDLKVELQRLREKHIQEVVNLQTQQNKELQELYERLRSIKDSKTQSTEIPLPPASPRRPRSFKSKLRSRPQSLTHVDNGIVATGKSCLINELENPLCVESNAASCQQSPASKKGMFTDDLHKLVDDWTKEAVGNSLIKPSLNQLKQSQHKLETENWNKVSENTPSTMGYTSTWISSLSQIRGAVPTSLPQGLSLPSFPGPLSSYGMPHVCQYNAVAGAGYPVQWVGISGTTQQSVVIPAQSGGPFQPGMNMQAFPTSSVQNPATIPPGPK
# Sequence of TAO1(h) (Q7L7X3 whole entry): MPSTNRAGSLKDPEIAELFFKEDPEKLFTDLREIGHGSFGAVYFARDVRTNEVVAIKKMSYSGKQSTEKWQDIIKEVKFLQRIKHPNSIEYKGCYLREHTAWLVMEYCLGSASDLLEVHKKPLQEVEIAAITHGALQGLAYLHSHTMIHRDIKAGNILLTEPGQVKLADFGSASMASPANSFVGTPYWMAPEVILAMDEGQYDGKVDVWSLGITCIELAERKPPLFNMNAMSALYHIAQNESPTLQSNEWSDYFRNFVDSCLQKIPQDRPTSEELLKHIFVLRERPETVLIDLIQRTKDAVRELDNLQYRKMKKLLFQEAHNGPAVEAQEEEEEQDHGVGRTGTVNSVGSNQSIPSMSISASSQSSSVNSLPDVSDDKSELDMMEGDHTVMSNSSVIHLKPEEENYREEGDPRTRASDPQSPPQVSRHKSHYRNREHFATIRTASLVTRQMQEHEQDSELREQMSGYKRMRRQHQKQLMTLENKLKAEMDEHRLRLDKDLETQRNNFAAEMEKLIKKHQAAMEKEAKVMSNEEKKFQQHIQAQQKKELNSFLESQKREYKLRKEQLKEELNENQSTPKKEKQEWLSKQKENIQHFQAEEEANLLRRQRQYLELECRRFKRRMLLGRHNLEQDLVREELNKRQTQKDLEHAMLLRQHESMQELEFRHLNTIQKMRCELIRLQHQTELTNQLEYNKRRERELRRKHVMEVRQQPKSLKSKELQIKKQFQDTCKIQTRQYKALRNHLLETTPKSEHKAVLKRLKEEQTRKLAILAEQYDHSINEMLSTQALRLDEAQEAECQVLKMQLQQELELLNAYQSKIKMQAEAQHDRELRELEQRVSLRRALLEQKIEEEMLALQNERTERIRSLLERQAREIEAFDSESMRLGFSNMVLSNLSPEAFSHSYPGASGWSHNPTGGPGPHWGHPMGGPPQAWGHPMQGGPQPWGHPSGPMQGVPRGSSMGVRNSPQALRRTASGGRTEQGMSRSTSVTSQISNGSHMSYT
# Sequence of EGFR(L858R)(h) (P00533 25-1210 L858R): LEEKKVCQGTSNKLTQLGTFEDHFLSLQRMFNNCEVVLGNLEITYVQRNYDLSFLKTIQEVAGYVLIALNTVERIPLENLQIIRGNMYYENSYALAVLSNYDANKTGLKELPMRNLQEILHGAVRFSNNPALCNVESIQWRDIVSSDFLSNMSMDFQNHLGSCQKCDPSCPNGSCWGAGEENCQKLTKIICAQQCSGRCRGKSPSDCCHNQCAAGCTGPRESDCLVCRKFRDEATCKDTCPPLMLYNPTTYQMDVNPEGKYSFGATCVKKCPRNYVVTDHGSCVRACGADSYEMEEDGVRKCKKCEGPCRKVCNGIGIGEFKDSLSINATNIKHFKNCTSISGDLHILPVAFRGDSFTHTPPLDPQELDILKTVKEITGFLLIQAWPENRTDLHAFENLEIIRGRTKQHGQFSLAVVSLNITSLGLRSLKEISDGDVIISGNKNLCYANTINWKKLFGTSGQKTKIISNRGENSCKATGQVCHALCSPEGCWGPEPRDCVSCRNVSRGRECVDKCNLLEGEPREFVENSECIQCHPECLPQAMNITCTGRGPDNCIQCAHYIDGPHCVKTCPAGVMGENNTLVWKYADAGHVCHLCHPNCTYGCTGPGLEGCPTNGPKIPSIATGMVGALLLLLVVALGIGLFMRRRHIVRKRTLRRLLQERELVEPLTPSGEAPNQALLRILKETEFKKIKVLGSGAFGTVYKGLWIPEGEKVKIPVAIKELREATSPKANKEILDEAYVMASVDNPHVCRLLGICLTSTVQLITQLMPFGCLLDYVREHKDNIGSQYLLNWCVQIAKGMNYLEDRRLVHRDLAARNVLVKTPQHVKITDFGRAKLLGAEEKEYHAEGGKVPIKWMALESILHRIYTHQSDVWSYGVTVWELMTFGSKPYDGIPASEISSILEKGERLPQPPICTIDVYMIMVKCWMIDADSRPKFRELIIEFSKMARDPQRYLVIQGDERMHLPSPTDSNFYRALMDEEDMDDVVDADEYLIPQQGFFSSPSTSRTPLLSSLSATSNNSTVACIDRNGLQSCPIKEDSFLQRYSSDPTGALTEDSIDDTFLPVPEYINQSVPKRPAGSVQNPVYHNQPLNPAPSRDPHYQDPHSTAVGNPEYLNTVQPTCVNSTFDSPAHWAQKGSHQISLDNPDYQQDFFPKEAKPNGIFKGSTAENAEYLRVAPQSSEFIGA
# Sequence of Lyn(h) (P07948 whole entry): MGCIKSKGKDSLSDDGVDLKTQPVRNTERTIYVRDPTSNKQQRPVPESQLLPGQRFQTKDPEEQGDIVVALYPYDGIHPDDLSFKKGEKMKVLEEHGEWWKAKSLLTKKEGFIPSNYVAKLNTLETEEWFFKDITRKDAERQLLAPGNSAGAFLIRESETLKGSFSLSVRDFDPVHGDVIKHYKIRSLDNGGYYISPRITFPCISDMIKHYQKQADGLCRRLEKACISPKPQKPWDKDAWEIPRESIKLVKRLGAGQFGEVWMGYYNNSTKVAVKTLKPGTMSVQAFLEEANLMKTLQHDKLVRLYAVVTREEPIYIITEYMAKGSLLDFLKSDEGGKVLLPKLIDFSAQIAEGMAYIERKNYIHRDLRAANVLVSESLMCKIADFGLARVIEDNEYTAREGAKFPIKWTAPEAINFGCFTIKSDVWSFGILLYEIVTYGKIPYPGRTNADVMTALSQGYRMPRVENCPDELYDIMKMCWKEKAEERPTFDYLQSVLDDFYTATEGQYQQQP
smiles,measurement,setting,value
"CCn1c(N2CCNCC2)nc2c(Br)c(Br)c(Br)c(Br)c21 [Compound 416, 4,5,6,7-tetrabromo-1-ethyl-2-(piperazin-1-yl)-1H-benzo[d]imidazole]",remaining activity at 1 µM,[1],68%
same,remaining activity at 1 µM,[2],95%
same,remaining activity at 1 µM,[3],97%
same,remaining activity at 1 µM,[4],6%
same,% remaining activity,[5],6%
same,remaining activity at 1 µM,[6],73%
same,remaining activity at 1 µM,[7],84%
same,remaining activity at 1 µM,[8],92%
same,remaining activity at 1 µM,[9],90%
same,remaining activity at 1 µM,[10],72%
same,remaining activity at 1 µM,[11],82%
same,remaining activity at 1 µM,[12],92%
same,remaining activity at 1 µM,[13],51%
same,remaining activity at 1 µM,[14],22%
same,remaining activity at 1 µM,[15],26%
same,remaining activity at 1 µM,[16],92%
same,remaining activity at 1 µM,[17],93%
same,remaining activity at 1 µM,[18],103%
same,remaining activity at 1 µM,[19],81%
same,remaining activity at 1 µM,[20],65%
same,remaining activity at 1 µM,[21],93%
same,remaining activity at 1 µM,[22],94%
same,remaining activity at 1 µM,[23],14%
same,remaining activity at 1 µM,[24],91%
same,remaining activity at 1 µM,[25],91%
same,remaining activity at 1 µM,[26],67%
same,remaining activity at 1 µM,[27],79%
same,remaining activity at 1 µM,[28],115%
same,remaining activity at 1 µM,[29],109%
same,remaining activity at 1 µM,[30],91%
same,remaining activity at 1 µM,[31],89%
same,remaining activity at 1 µM,[32],90%
same,remaining activity at 1 µM,[33],125%
same,remaining activity at 1 µM,[34],79%
same,remaining activity at 1 µM,[35],104%
same,remaining activity at 1 µM,[36],59%
same,remaining activity at 1 µM,[37],94%
same,remaining activity at 1 µM,[38],94%
same,remaining activity at 1 µM,[39],87%
same,remaining activity at 1 µM,[40],59%
